“Also recorded” adds a separate entry of the source.
Tests used:
[1] = target: T1, human constitutive 20S proteasome (Homo sapiens, UniProt P25787+P25789); assay: Fluorogenic peptide degradation 20S proteasome activity assay; assay type: biochemical; settings: for 20S proteasome activity (in words): 0-80 μM; for AC200 (concentration achieving a doubling of 20S activity): combination of the three fluorogenic substrates (CT-L, T-L, Casp-L)
T1 construct: purchased Boston Biochem, Inc. (Cambridge, Mass.)
Description: Fluorogenic peptide degradation 20S proteasome activity assay. Activity assays were carried out in a 100 μL reaction volume. Different concentrations (1-80 μM) of test compounds were added to a black flat/clear bottom 96-well plate containing 1 nM of human constitutive 20S proteasome, in 50 mM Tris-HCl at pH 7.8, 100 mM NaCl and allowed to incubate for 15 min at 37° C. Fluorogenic substrates were then added and the enzymatic activity measured at 37° C. on a SpectraMax M5e spectrometer by measuring the change in fluorescence unit per minute for 1 hour at 380-460 nm. The fluorescence units for the vehicle control were set at a 100%, and the ratio of drug-treated sample set to that of vehicle control was used to calculate the fold change in enzymatic activity. The fluorogenic substrates used were one of the following: Suc-LLVY-AMC (CT-L activity, 20 μM), Z-LLE-AMC (Casp-L activity, 20 μM), Boc-LRR-AMC (T-L activity, 40 μM) or a combination of the three substrates each at 6.67 μM.

26S proteasome = 26S proteasome (Homo sapiens, UniProt P25787+P25789); assay: Proteolysis of fluorogenic peptide substrates by purified 26S proteasome; assay type: biochemical; settings: 0-80 μM
Description: FIG. 1A is a plot showing the rate of proteolysis of fluorogenic peptide substrates by purified 20S and 26S proteasome in the presence of a concentration response (0-80 μM) of fluspirilene. […] Error bars denote standard deviation.
The small molecule antipsychotic drug fluspirilene was identified as a promising new scaffold for the development of 20S activators due to its strong enhancement of 20S proteolysis. To assess fluspirilene's 20S proteasome activity, a series of assays were performed using each of three fluorogenic peptide substrates. These substrates were a chymotryptic-like (CT-L), a trypsin-like (T-L) and a caspase-like (Casp-L) substrate, one for each of the catalytic sites of the proteasome. It has been shown that the proteasome's active sites allosterically regulate each other in the presence of their individual substrates. Therefore, a combination of the three probes to represent the overall activity of a 20S activator more accurately in a system in which all catalytic sites are interacting.

[2] = target: T2, human constitutive 20S proteasome impaired by α-synuclein oligomer mixture (Homo sapiens, UniProt P25787+P25789); assay: IDP oligomer inhibition in fluorogenic peptide degradation assay (α-synuclein oligomers); assay type: biochemical; settings: 1-10 μM, concentration dependent; CT-L substrate; 500 nM α-synuclein oligomers
T2 construct: purchased Boston Biochem, Inc. (Cambridge, Mass.)
Description: IDP oligomer Inhibition in fluorogenic peptide degradation assay. Assays were carried out in a 100 μL reaction volume. Different concentrations (1-10 μM) of test compounds were added to a black flat/clear bottom 96-well plate containing 1 nM of human constitutive 20S proteasome, in 50 mM Tris-HCl at pH 7.8 and allowed to incubate for 15 min at 37° C. Then, 1 μL of α-synuclein or amyloid beta oligomer mixture of was added to each sample to a final concentration of 500 nM for α-synuclein and 2.5 μM for amyloid beta. This mixture was then allowed to incubate again for 15 min at 37° C. Next, 10 μL of CT-L fluorogenic substrate was added to a final concentration of 20 μM. The enzymatic activity was measured at 37° C. on a SpectraMax M5e spectrometer by measuring the change in fluorescence unit per minute for 1 hour at 380-460 nm. The fluorescence units for the vehicle control were set at a 100%, and the ratio of drug-treated or just oligomer-treated samples to the vehicle control was used to calculate the relative enzymatic activity.

[3] = target: T3, human constitutive 20S proteasome impaired by amyloid beta oligomer mixture (Homo sapiens, UniProt P25787+P25789); assay: IDP oligomer inhibition in fluorogenic peptide degradation assay (amyloid beta oligomers); assay type: biochemical; settings: 1-10 μM, concentration dependent; CT-L substrate; 2.5 μM amyloid beta
T3 construct: purchased Boston Biochem, Inc. (Cambridge, Mass.)
Description: Amylold beta aggregate preparation. Synthetic amyloid beta was purchased from Eurogentec. To remove preexisting aggregates, synthetic amyloid beta peptide was dissolved in 100% hexafluoroisopropanol (HFIP) and incubated at 37° C. for 2 h. The HFIP was removed and the remaining peptide films were stored at −80° C. until use. Aggregates were prepared by resuspending amyloid beta films with DMSO (50 μL per 1 mg of peptide), followed by addition of ultrapure H2O (800 μL) and rapid addition of 2 M Tris-base (10 μL) at pH 7.6. The solution was then vortexed for 5 seconds and allowed to incubate at room temperature for 5 minutes. The Amyloid beta mixture was then diluted to the desired concentration and used immediately.
IDP oligomer Inhibition in fluorogenic peptide degradation assay. Assays were carried out in a 100 μL reaction volume. […] The enzymatic activity was measured at 37° C. on a SpectraMax M5e spectrometer by measuring the change in fluorescence unit per minute for 1 hour at 380-460 nm. The fluorescence units for the vehicle control were set at a 100%, and the ratio of drug-treated or just oligomer-treated samples to the vehicle control was used to calculate the relative enzymatic activity.

[4] = target: T4, purified human 20S proteasome (Homo sapiens, UniProt P25787+P25789); assay: In vitro purified α-synuclein oligomer degradation assay (western blot); assay type: biochemical; settings: 24 hours incubation with 20S proteasome
T4 construct: purchased Boston Biochem, Inc. (Cambridge, Mass.)
Description: In vitro purified α-synuclein oligomer degradation assay (western blot). Digestion of α-synuclein oligomer mixture was carried out in a 50 μL reaction volume made of 50 mM Tris at pH 7.8; 0.33 μM α-synuclein oligomer mixture and 6.7 nM purified human 20S proteasome. Briefly, 20S proteasome was diluted to 7.58 nM in the reaction buffer. Fluspirilene or vehicle (1 μL of 50×stock or DMSO) were added to 44 μL of 7.58 nM 20S and incubated at 37° C. for 20 min. The substrate (5 μL of 3.3 μM synuclein oligomer mixture) was then added to the reaction mixture and incubated at 37° C. for 24 hours. The reactions were then quenched with concentrated SDS loading buffer. Samples were resolved on a 4-20% Tris-glycine SDS-PAGE and immunoblotted with mouse monoclonal anti α-synuclein IgG (1:2000) and anti-mouse HRP-linked IgG (1:2000). Blots were developed with ECL western reagent and imaged with an Azure Biosystems 3000 imager.

[5] = system: A53T α-synuclein in transiently transfected HEK-293T cells; assay: A53T α-synuclein digestion in HEK-293T cells; assay type: cell-based, human; settings: for accumulation of A53T α-synuclein protein: 10 or 30 μM, 8 hours, with cycloheximide 100 μg/mL, concentration dependent
Description: Cell culture. Human embryonic kidney cells (HEK293T) were maintained in Dulbecco's modified Eagle's medium (DMEM) supplemented with 10% fetal bovine serum and 100 units/mL penicillin/streptomycin, at 37° C. with 5% CO2.
Transient transfection of A53T α-synuclein plasmid Into HEK-293T cells. Cells were grown according using the methods stated above to ˜50-70% confluency. At this point plasmid prepared with Xfect transfection agent (prepared following manufacturers protocol) was added to the HEK-293 cells and incubated for 4 hours. The media was then replaced with fresh culture media and the cells were returned to the incubator for 24 hours prior to treatment.
A53T α-synuclein digestion in HEK-293T cells. HEK-293T cells were transfected as described above and incubated for 24 hours. The cells were then treated with 100 μg/mL of cycloheximide, in combination with either vehicle (DMSO), fluspirilene (10 or 30 μM), N-acylated fluspirilene (10 or 30 μM), bortezomib (100 nM), or a combination thereof for 8 hours. The cells were then lysed using RIPA buffer and the manufacturers protocol. A BCA assay was performed to quantify protein levels and the lysates were normalized to desired concentrations prior to electrophoresis and western blot analysis, performed as described previously.

dopamine D2 receptor = dopamine D2 receptor (Homo sapiens, UniProt P14416); settings: cited from earlier work
[6] = combination of the three catalytic site substrates

Chain of dopamine D2 receptor (P14416 whole entry, species assumed): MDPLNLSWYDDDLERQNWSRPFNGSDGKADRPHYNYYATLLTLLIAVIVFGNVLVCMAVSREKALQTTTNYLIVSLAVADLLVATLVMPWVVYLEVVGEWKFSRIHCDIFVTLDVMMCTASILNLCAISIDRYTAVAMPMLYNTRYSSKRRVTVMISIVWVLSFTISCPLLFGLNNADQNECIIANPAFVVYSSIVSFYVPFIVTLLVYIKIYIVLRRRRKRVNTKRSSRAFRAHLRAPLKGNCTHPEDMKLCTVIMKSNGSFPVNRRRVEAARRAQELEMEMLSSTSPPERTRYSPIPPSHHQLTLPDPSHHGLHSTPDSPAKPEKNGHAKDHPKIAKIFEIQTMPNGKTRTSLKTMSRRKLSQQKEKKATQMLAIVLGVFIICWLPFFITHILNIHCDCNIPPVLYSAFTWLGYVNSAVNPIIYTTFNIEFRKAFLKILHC

Row | activation of the catalytic sites of the 20S proteasome ([1]; CT-L, T-L and Casp-L substrates) | maximum fold enhancement ([1]; combination of probes, over vehicle control) | AC200 (concentration achieving a doubling of 20S activity) [1] | enhancement of the proteolytic activity of the 26S proteasome (26S proteasome) | prevention of 20S impairment by α-syn oligomers [2] | prevention of 20S impairment by amyloid beta oligomers [3] | remaining α-syn oligomers relative to vehicle control [4] | maximum fold enhancement [1, 6] | max fold increases, increase over vehicle ([1]; for each substrate/combination) | activation of the CT-L site relative to fluspirilene ([1]; individual CT-L fluorescent peptide probe) | AC200 at the CT-L site ([1]; individual CT-L substrate (Suc-LLVY-AMC)) | AC200 at the Casp-L site ([1]; individual Casp-L substrate (Z-LLE-AMC)) | activation of the T-L site relative to fluspirilene ([1]; individual T-L fluorescent peptide probe) | Compound | 20S proteasome activity (in words) [1, 6] | accumulation of A53T α-synuclein protein [5] | dopamine D2 receptor antagonism (dopamine D2 receptor) | effect on A53T α-synuclein when proteasome activity is blocked ([5]; in combination with bortezomib (100 nM))
1 | activates all three catalytic sites | ~10 fold | 2.2 µM | did not enhance | prevented 20S impairment | prevented 20S impairment | reduction in overall α-syn oligomers |  |  |  |  |  |  | O=C1NCN(c2ccccc2)C12CCN(CCCC(c1ccc(F)cc1)c1ccc(F)cc1)CC2 [Fluspirilene, fluspirilene, reference compound] | promising | effectively reduced the accumulation | potent | 
2 |  |  | 1.9 µM |  | prevented 20S impairment | prevented 20S impairment | reduction in overall α-syn oligomers | > 2000% | > 1500% | reduced activation | 4.7 µM | 4.1 µM | better activation | O=C(CCC(c1ccc(F)cc1)c1ccc(F)cc1)N1CCC2(CC1)C(=O)NCN2c1ccccc1 [Compound 16] | promising; also recorded: excellent activity | effectively reduced the accumulation |  | abrogated
3 |  |  |  |  |  |  |  |  |  |  |  |  |  | O=C1NCN(c2ccccc2)C12CCN(CCC=C(c1ccc(F)cc1)c1ccc(F)cc1)CC2 [Compound 11] | lessened activity; also recorded: moderate activity |  |  | 

Reference: patent publication US20230286982A1, “PROTEASOME ENHANCERS AND USES THEREOF” (Board of Trustees of Michigan State University, priority 2020, published 2023)
